From ChEMBL document CHEMBL5523704, “Exploration of isoxazole analogs: Synthesis, COX inhibition, anticancer screening, 3D multicellular tumor spheroids, and molecular modeling” (Eur J Med Chem, 2024) come the findings set out here.

pIC50: −log10 of the molar value. Values after ≈ are worked out from the molar mass of the structure shown.

Data set [1] has as its target T1, Prostaglandin G/H synthase 1 (Bos taurus, UniProt O62664).
T1 sequence (O62664 whole entry): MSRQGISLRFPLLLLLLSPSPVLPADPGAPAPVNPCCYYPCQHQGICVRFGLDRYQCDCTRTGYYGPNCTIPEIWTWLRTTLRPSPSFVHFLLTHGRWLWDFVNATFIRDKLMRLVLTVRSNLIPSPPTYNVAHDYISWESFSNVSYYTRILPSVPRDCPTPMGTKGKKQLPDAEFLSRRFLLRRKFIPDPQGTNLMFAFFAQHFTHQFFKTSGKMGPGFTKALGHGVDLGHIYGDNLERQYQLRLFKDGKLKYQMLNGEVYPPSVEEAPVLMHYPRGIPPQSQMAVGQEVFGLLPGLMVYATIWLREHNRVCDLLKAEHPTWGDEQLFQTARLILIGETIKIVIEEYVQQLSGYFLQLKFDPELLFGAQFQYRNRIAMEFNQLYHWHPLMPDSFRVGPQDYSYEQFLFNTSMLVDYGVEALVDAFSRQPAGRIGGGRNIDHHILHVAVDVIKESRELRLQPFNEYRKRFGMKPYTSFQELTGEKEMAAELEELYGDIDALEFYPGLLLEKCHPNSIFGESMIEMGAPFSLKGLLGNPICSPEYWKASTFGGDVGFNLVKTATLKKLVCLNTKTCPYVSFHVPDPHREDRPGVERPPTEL
The data set is described as follows: Inhibition of bovine COX-1 using arachidonic acid as substrate preincubated for 10 mins followed by substrate addition and measured after 5 mins by ELISA method. Background: ELISA stands for enzyme-linked immunosorbent assay.

Data set [2] in a line: Inhibition of human recombinant COX-1 using arachidonic acid as substrate preincubated for 10 mins followed by substrate addition and measured after 5 mins by ELISA method.
A further data set relates to COLO 205. The data set is described as follows: Antiproliferative activity against human COLO 205 cells incubated for 72 hrs by MTS assay. The note with it: COLO 205, 72 h. The class given is functional, cell-based.
For data set [3], the system named is Hep 3B2. The data set is described as follows: Antiproliferative activity against human Hep3B cells by MTS assay. The class given is functional, cell-based. (Tetrazolium assays rely on reduction of a dye to a coloured formazan, in cell work by metabolically active cells.)
In data set [4] the test system is HeLa. Description: Antiproliferative activity against human HeLa cells by MTS assay. The class given is functional, cell-based.
Another data set relates to Huh-7. Description: Antiproliferative activity against human Huh-7 cells incubated for 72 hrs by SRB method. The class given is functional, cell-based. As to conditions: Huh-7, 72 h. In general terms: In SRB staining, fixed cells bind dye roughly in proportion to their protein.
In a further data set the test system is HCT-116. Description: Antiproliferative activity against human HCT-116 cells incubated for 72 hrs by SRB method. The class given is functional, cell-based. As to conditions: HCT-116, 72 h.
In data set [5] the test system is Hep 3B2. The data set is described as follows: Antiproliferative activity against human Hep3B cells. It counts as functional, cell-based.
The subject of data set [6] is MCF7. Description: Antiproliferative activity against human MCF7 cells. The class given is functional, cell-based.
Data set [7] concerns MCF7. The data set is described as follows: cells. The note with it: Homo sapiens, MCF7, 48 h.
Description: Antiproliferative activity against human MCF7 cells assessed as inhibition of cell growth incubated for 48 hrs by CellTiter 96 Aqueous One Solution Cell Proliferation Assay
The subject of data set [8] is Hep 3B2. The data set is described as follows: cells. As to conditions: Homo sapiens, Hep3B, 48 h.
Description: Antiproliferative activity against human Hep3B cells assessed as inhibition of cell growth incubated for 48 hrs by CellTiter 96 Aqueous One Solution Cell Proliferation Assay
In the next data set the test system is Caco-2. The data set is described as follows: Antiproliferative activity against human Caco-2 cells assessed as inhibition of cell growth incubated for 48 hrs by CellTiter 96 Aqueous One Solution Cell Proliferation Assay. It counts as functional, cell-based. The note with it: Caco-2, 48 h.
Data set [9] can be described thus: Antiproliferative activity against HEK293T cells assessed as inhibition of cell growth incubated for 48 hrs by CellTiter 96 Aqueous One Solution Cell Proliferation Assay. It counts as toxicity, cell-based, HEK-293T. The note with it: human.
For data set [10], the system named is HeLa. Description: cells. As to conditions: Homo sapiens, 48 h.
Description: Antiproliferative activity against human HeLa cells assessed as inhibition of cell growth incubated for 48 hrs by CellTiter 96 Aqueous One Solution Cell Proliferation Assay
A short description of data set [11]: Antiproliferative activity against human LX2 cells assessed as inhibition of cell growth incubated for 48 hrs by CellTiter 96 Aqueous One Solution Cell Proliferation Assay. The class given is toxicity, cell-based. As to conditions: LX-2 cells.
For another data set, the system named is HepG2. The data set is described as follows: cells. As to conditions: Homo sapiens, HepG2, 48 h.
Data set [12] addresses T2, Prostaglandin G/H synthase 1 (Ovis aries, UniProt P05979).
T2 sequence (P05979 whole entry): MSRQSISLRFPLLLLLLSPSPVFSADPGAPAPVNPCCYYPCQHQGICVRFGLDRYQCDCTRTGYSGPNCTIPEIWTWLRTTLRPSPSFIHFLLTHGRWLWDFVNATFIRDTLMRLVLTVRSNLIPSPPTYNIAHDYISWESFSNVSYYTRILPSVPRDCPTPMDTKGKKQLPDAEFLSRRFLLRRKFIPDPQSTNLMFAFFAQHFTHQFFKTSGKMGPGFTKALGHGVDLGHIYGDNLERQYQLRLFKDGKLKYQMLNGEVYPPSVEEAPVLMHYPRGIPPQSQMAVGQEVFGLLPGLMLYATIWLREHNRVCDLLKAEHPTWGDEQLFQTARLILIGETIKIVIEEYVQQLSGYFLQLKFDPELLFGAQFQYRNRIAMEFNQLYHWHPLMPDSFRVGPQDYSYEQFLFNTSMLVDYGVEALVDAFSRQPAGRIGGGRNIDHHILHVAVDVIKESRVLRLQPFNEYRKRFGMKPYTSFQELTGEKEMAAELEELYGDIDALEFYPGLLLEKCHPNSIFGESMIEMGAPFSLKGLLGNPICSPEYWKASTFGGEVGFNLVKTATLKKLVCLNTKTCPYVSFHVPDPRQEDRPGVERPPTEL
Description: Inhibition of ovine COX-1 by EIA method

Description for HepG2: Antiproliferative activity against human HepG2 cells assessed as inhibition of cell growth incubated for 48 hrs by CellTiter 96 Aqueous One Solution Cell Proliferation Assay

As to `COc1cccc(-c2nc(C(=O)Nc3ccc(C(F)(F)F)cc3)cs2)c1`, the negative-log IC50 (pIC50) – broadly, the negative decadic logarithm of the IC50, by convention in mol/L – in data set [1] was 6.62; in data set [2] it was 6.72; in the data set with COLO 205, 4.51.

In the case of `COc1ccc(NC(=O)c2c(-c3ccccc3Cl)noc2C)cc1OC`, the IC50 (usually the concentration needed to halve the response being measured) in the data set with Hep 3B2 [3] came out at 24 µg/mL (≈ 64.3 µM); in the data set with HeLa [4], 15.5 µg/mL (≈ 41.5 µM).

With `COc1ccc(-c2nc(C(=O)Nc3cc(OC)c(OC)c(OC)c3)cs2)cc1`, the negative logarithm of the IC50 (pIC50) in the data set on Huh-7 is 4.76; in the data set with HCT-116, 4.84.

As to `Cc1onc(-c2c(F)cccc2Cl)c1C(=O)Nc1ccc(C(C)(C)C)cc1`, the IC50 with Hep 3B2 [5] is 2.77 µg/mL (≈ 7.16 µM); with MCF7 [6] it was 9.31 µg/mL (≈ 24.1 µM).

`COc1cccc2c1C(=O)c1c(O)c3c(c(O)c1C2=O)C[C@@](O)(C(=O)CO)C[C@@H]3O[C@H]1C[C@H](N)[C@H](O)[C@H](C)O1` [DOXORUBICIN]: the negative-log IC50 (pIC50) in the data set with MCF7 [7] was 7.28; in the data set with Hep 3B2 [8] it was 7.60; in the data set with Caco-2 it was 7.62; in the data set with HeLa [10], more than 8.00. The IC50 at 48 h in data set [9] was determined as 38 nM; in data set [11] it was 210 nM.

As for `O=c1[nH]cc(F)c(=O)[nH]1` [FLUOROURACIL], the negative logarithm of the IC50 (pIC50) in the data set with MCF7 [7] was 5.19; in the data set on Hep 3B2 [8], 5.29; in the data set with Caco-2, 5.32; in the data set on HepG2 it was 5.39; with HeLa [10], 5.11. In addition, the IC50 at 48 h in [9] was determined as 4070 nM; in data set [11], 178 nM.

In turn, `CC(C(=O)O)c1cccc(C(=O)c2ccccc2)c1` (stereo not drawn) [KETOPROFEN] showed a negative logarithm of the IC50 (pIC50) in data set [12] of 7.46.
